Experimental data as given in US4748180A, “β-carboline-3-carboxylic acid derivatives, and their use as psychotropic and anti-epileptic agents” (Schering Aktiengesellschaft, priority 1984, dated 1988).

Assays:
benzodiazepine receptors [1] = test: in vivo inhibition of 3H-flunitrazepam binding (forebrain membranes of injected mice); details: usually subcutaneously, 3H-flunitrazepam i.v. 15 minutes later, killed after a further 20 minutes
Method: The ED50 value represents the dose (mg/kg) of a test substance which causes the specific binding of flunitrazepam to benzodiazepine receptors in a living brain to be reduced to 50% of the control value. Such an in vivo test is carried out as follows:
Groups of mice are injected with the test substance of different doses and usually subcutaneously. 15 minutes later ^3 H-flunitrazepam is administered intravenously to the mice, and after a further 20 minutes, the mice are killed. Their forebrain membranes are removed and the radioactivity of these forebrain membranes is measured by scintillation counting. The ED50 value is determined from dose-response curves.

benzodiazepine receptors [2] = test: in vitro inhibition of 3H-flunitrazepam binding (displacement test, brain membrane suspension); parameters: unit not given here; details: 3H-flunitrazepam 1.0 nM, 0° C., rat forebrain, pH 7.1

SMILES	Inhibition of H^3flunitrazepam binding in vivo ED50 (benzodiazepine receptors [1])	Inhibition of H^3flunitrazepam binding in vitro IC50 (benzodiazepine receptors [2])
CCOC(=O)c1ncc2[nH]c3cccc(OC(C)C)c3c2c1COC	1.4 mg/kg	0.6
CCOC(=O)c1ncc2[nH]c3cccc(OC4CCC4)c3c2c1COC	0.5 mg/kg	0.2
CCOCc1cccc2[nH]c3cnc(C(=O)OCC)c(COC)c3c12 [Example 1, 5-ethoxymethyl-4-methoxymethyl-β-carboline-3-carboxylic acid ethylester]	2.4 mg/kg	0.4
